Laboratory results from patent US20130244255A1, “ANTIBODIES DIRECTED TO GPNMB AND USES THEREOF” (priority 2006, published 2013).

Assays:
[1] = system: human interleukin-8; assay: Plasma human IL-8 (ELISA) in SK-MEL-2 xenograft-bearing athymic mice; format: in vivo
Description: Interleukin-8 (IL-8) was measured by an enzyme-linked immunosorbent assay using a commercial kit (Human CXCL8/IL-8 Quantikine ELISA Kit, 3rd Generation; R&D Systems, Minneapolis, Minn.), which recognizes human, but not mouse, IL-8. Assays were conducted according to the manufacturer's instructions in which the IL-8 was detected by binding to IL-8 specific mAb pre-coated onto 96-well microliter plate. Standards and samples were pipetted into the wells and human IL-8 was bound by the immobilized antibody. After washing away the unbound substances, horseradish peroxidase-conjugated IL-8 specific polyclonal antibody was added to the wells. Following a wash, substrate solution was added and color developed; the plate was read on an ELISA plate reader. Results were calculated from a standard curve, generated by a four-parameter logistic curve fit, and expressed in picograms per milliliter. The lower limit of quantitation of the assay was 3.5 pg/mL and for each timepoint, n=3 mice. No human IL-8 could be detected in the blood of normal (non-tumor-bearing) athymic mice.
Plasma concentrations of human IL-8 were measured by the species-specific ELISA assay described in Materials and Methods. At the beginning of treatment (day 16), the human IL-8 level in plasma was 29.8 pg/ml. […] At day 30 (14 days after treatment), plasma IL-8 level was not detected and remained undetectable for the duration of the experiment (FIG. 26).

[2] = system: CG56972-expressing cancer cell lines; assay: Growth of CG56972-expressing cells with naked CR011; format: cell-based, human; details: used directly, unconjugated
[3] = system: TK10; assay: Anti-GPNMB antibody mediated indirect cell killing (saporin secondary conjugate, colony count); format: cell-based; details: antibody at 50 ng/mL with goat anti-human IgG-saporin 100 ng/well
Description: UACC-62, a GPNMB antigen expressing cell line, and TK10, a non-expressing cell line were plated onto flat bottom 96-well tissue culture plates (Becton Dickinson, Franklin Lakes, N.J., USA) at a density of 3000 cells per well. Once the cells reached ˜25% confluency, 100 ng/well of secondary antibody-toxin conjugate (goat anti-human IgG-saporin; Advanced Targeting Systems, San Diego, USA, HUM-ZAP; cat #IT-22) was added. […] An anti-EGFR monoclonal antibody (MS-269-PABX, NeoMarkers, Fremont, Calif., USA) was used as a positive primary antibody control. Chemotherapy reagent 5-FU at 600 uM was used as a positive reagent control. On day 5, the cells were trypsinized, transferred to 6-well tissue culture plates and incubated at 37° C. Plates were examined daily and between 8-10 days, all plates were Giemsa stained and colonies were counted.

[4] = biological target: T1, GPNMB (Homo sapiens, UniProt Q14956); assay: BiaCore 2000 analysis of hybridoma supernatants binding to GPNMB
T1 construct: we cloned the human CG56972 extracellular domain (ECD; aa 23-480); made in house; host or cells: HEK 293 cells
T1 sequence (Q14956 23-492): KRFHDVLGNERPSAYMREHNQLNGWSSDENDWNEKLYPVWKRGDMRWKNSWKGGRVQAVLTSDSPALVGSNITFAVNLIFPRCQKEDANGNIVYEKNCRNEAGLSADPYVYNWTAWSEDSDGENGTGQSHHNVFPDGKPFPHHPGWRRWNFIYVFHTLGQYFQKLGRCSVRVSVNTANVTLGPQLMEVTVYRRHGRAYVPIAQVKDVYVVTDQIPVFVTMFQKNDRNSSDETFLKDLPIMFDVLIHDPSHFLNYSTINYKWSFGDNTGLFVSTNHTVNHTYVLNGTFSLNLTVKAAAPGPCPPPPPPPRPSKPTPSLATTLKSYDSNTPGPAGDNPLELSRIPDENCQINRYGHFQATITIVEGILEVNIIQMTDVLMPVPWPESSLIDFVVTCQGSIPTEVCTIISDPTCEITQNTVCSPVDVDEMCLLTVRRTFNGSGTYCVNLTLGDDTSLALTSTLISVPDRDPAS
Description: Certain Hybridoma cell supernatants (29) were analyzed for binding to GPNMB by BiaCore® 2000 biosensor equipped with a research-grade CM5 sensor chip. A 1:25 dilution of cell supernatant was passed over a protein A surface for 5 min followed by washing the surface for 10 mins. Subsequently, GPNMB was injected for 90 sec. over the surface at a concentration of 880 nM followed by dissociation. Double-referenced binding data were obtained by subtracting the signal from a control flow cell and subtracting the baseline drift of a buffer injected just prior to the antigen injection. GPNMB binding data for each mAb was normalized for the amount of mAb captured on each surface. Normalized, drift corrected responses were also measured. The sensorgrams were fit to a simple 1:1 kinetic model.

[5] = mAb captured on protein A, GPNMB at 880 nM, 1:1 kinetic model

Substance	plasma IL-8 level ([1]; 1 mg/kg single bolus, day 17.5 (1.5 days after treatment)) [pg/mL]	plasma IL-8 level ([1]; 1 mg/kg single bolus, day 58 (42 days after treatment)) [pg/mL]	plasma IL-8 level ([1]; 10 mg/kg single bolus, day 17.5 (1.5 days after treatment)) [pg/mL]	plasma IL-8 level ([1]; 10 mg/kg single bolus, day 23 (7 days after treatment)) [pg/mL]	plasma IL-8 level ([1]; 10 mg/kg single bolus, day 30 (14 days after treatment) and after, lower limit of quantitation 3.5 pg/mL)	effect of naked antibody on CG56972 expressing cells (in words) [2]	effect of naked antibody on CG56972 expressing cells (in words) ([2]; listed as CR011 IgG2 mAb)	cell death in GPNMB negative TK10 cells [3]	binding to GPNMB (in words) ([4]; BiaCore, 1:25 dilution of cell supernatant)	Kd [4, 5] [µM]	ka [4, 5] [M⁻¹ s⁻¹]	kd [4, 5] [s⁻¹]
CR011-vcMMAE: CR011 conjugated to monomethyl auristatin E through a protease cleavable valine-citrulline linker; approx. 4 drugs per antibody	46.3	414.63	52.85	24.39	not detected	–	–	–	–	–	–	–
CR011: fully human monoclonal antibody that specifically binds to GPNMB; VH SEQ ID NO: 20, VL SEQ ID NO: 29	–	–	–	–	–	did not inhibit the growth	no effect	less than 24%	strong binding	0.052	16524	0.000855
